Experimental data: patent US20260250318A1, “COMPOSITIONS AND METHODS FOR CROSSING THE BLOOD BRAIN BARRIER” (VOYAGER THERAPEUTICS, INC., priority 2022, published 2026)

System: brain
Test: Maturation of TTM-001 capsid, NGS enrichment in brain of CD-1 Outbred mice
Assay type: in vivo
Details: NGS fold-enrichment of TTM-001 matured AAV capsid variants in the brain of CD-1 Outbred mice; intravenous 1.0×10^12 VG/dose; 14 days in life; RNA; relative to non-matured TTM-001 control
How it was run: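 Pooled matured TTM-001 or TTM-002 capsid libraries (loop IV region randomized by triple-codon or low-frequency point mutagenesis) dosed IV via tail vein at 1.0×10^12 VG/dose to three female CD-1 mice. Brain RNA taken after 14 days; RT-PCR and NGS gave fold enrichment versus parent TTM-001 or TTM-002 control.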

Sequence | Fold enrichment over TTM-001
KTINGVLSPHRKAQNQQT | 2.868 fold
KTINGSGSPHSKLSWQQT | 2.322 fold
KTINGSGSPHSLFRNQQT | 4.037 fold
KTINGSGSPHSKAWILQT | 2.004 fold
KTINGSGSPHSKARFSQT | 2.253 fold
KTINGSGSPHSKAQRGMT | 2.231 fold
KTINGSGSPHSKPWLQQT | 2.138 fold
KTINGSGSPHSKAQRSRT | 3.585 fold
KTINGSGSPHSKAQNTRR | 2.013 fold
KTINGSGSPHSKSARQQT | 2.067 fold
KTINGSGSPHCVAQNQQT | 2.080 fold
KTINGSGSPHSKAQNRRS | 2.613 fold
KTINGSGSPHSKRTAQQT | 2.331 fold
KTINFLRSPHSKAQNQQT | 3.331 fold
KTINGSGSPHSWSLNQQT | 2.523 fold
KTINGSKSPHRLAQNQQT | 3.073 fold
KTINGSGSPHSKAQNEVH | 2.272 fold
KTINGSMSPHRRAQNQQT | 2.028 fold
KTINGSGSPHLSCQNQQT | 2.277 fold
KTINGSGSPHSKRILQQT | 2.801 fold
KTINGSGSPHSKRVSQQT | 2.196 fold
KTINGSGSPHSTRLNQQT | 2.860 fold

Sequence | Fold enrichment over TTM-001
KTINGSGSPHSKAHRQQT | 2.117 fold
KTINMSRSPHSKAQNQQT | 2.622 fold
KTINGSGSPHSKTGRQQT | 2.259 fold
KTINGSGSPHSKSIRQQT | 2.728 fold
KTINGSGSPHSKVPKQQT | 2.924 fold
KTINGSGSPHSPLWNQQT | 2.562 fold
KTINGRRSPHTKAQNQQT | 2.069 fold
KTINGSGSPHSKARMTQT | 2.091 fold
KTINGNVSPHRKAQNQQT | 2.043 fold
KTINGSGSPHVLFQNQQT | 2.203 fold
KTINGSGSPHSKAFRLQT | 4.849 fold
KTINGSGSPHSKAQGVRT | 2.188 fold
KTINGSGSPHSKAQLVKT | 2.376 fold
KTINGSGSPHSKRINQQT | 2.173 fold
KTINGSGSPHSKTRAQQT | 2.223 fold
KTINGMKSPHSKAQNQQT | 2.413 fold
KTINGSGSPHSKAVRAQT | 2.538 fold
KTINGSLSPHSWAQNQQT | 2.885 fold
KTINGSGSPHSKAQTART | 2.363 fold
KTINGSRSPHLFAQNQQT (peptide inserted in AAV capsid) | 3.601 fold
KTINGSGSPHSKRLTQQT | 2.363 fold
KTINGSLSPHLCAQNQQT | 2.775 fold

Sequence | Fold enrichment over TTM-001
KTINGPLSPHCKAQNQQT | 2.194 fold
KTINGSGSPHSFVRNQQT | 2.110 fold
KTINGSGSPHSKRLMQQT | 2.345 fold
KTINGSGSPHSRLRNQQT | 3.851 fold
KTINGSSSPHLWAQNQQT (peptide inserted in AAV capsid) | 2.605 fold
KEVAGSGSPHSKAQNQQT | 2.250 fold
KTINGSGSPHSKARGVQT | 2.181 fold
KTINGSGSPHSKLARQQT | 3.054 fold
KTINGSGSPHSKNTRQQT | 2.047 fold
KTINGSGSPHSKAQRKLT | 4.339 fold
KTINGSGSPHSKASKRQT | 4.117 fold
KTINGSGSPHSKAQFTLT | 2.277 fold
KTINGSGSPHSKAQFSRT | 2.847 fold
KTINGSGSPHWSVQNQQT | 2.138 fold
KTINGSGSPHSKLMRQQT | 2.056 fold
KTINGSGSPHSLWLNQQT | 4.412 fold
KTINGSGSPHSKAQLTLT | 2.641 fold
KHRSGSGSPHSKAQNQQT | 2.456 fold
KTINGSGSPHSWTQNQQT | 2.084 fold
KTINGSGSPHSKAVRNQT | 2.516 fold
KTINGSGSPHSKRNLQQT | 3.210 fold
KWSPGSGSPHSKAQNQQT (peptide inserted in AAV capsid) | 2.764 fold

Sequence | Fold enrichment over TTM-001
KTINGSGSPHSYSRNQQT | 2.196 fold
KTINGSESPHDSAQNQQT | 2.164 fold
KTINGSGSPHSRLKNQQT | 3.156 fold
KTINGSSSPHWLAQNQQT (peptide inserted in AAV capsid) | 2.490 fold
KTINGSGSPHSKAQNSRR | 3.168 fold
KTINGRRSPHLKAQNQQT | 2.391 fold
KTINGSGSPHRTRQNQQT | 3.190 fold
KTINGSGSPHSKAQNVKL | 2.024 fold
KTINGSGSPHSKATRQQT | 2.505 fold
KTINGSGSPHSKASRQQT | 2.197 fold
KTINGSGSPHSIFSNQQT | 2.110 fold
KTINGLFSPHRKAQNQQT | 2.331 fold
KTINGSGSPHSMFPNQQT | 2.419 fold
KTINGKLSPHMKAQNQQT | 2.449 fold
KTINGSGSPHSKRRNQQT | 2.877 fold
KTINGSGSPHSKAQKRLT | 3.872 fold
KTINGSGSPHSYVRNQQT | 2.339 fold
KTINGIRSPHTKAQNQQT | 2.793 fold
KTINGSGSPHSKFSCQQT | 2.348 fold
KTINGSGSPHSRPRNQQT | 2.164 fold
